Assay results as given in PubChem BioAssay (NCI).
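Following 48 hours of exposure in 96-well plates, responses at five concentrations were used to interpolate endpoints linearly. GI50: concentration for 50% inhibition of growth. Definition used: TGI = concentration required for complete inhibition of growth.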

What was measured:
Assay in all cases: NCI anticancer screen, dose series, 48 h
OVCAR-5 ovarian = tested on: OVCAR-5 ovarian
NCI-H23 lung = tested on: NCI-H23 lung
NCI-H522 lung = tested on: NCI-H522 lung
MOLT-4 leukemia = tested on: MOLT-4 leukemia
SNB-19 CNS = tested on: SNB-19 CNS
M14 melanoma = tested on: M14 melanoma
RXF 393 renal = tested on: RXF 393 renal
MDA-MB-435 = tested on: MDA-MB-435
EKVX NSCLC = tested on: EKVX NSCLC
BT-549 breast = tested on: BT-549 breast
NCI-H460 lung = tested on: NCI-H460 lung
TK-10 renal = tested on: TK-10 renal
HCC-2998 colon = tested on: HCC-2998 colon
SF-268 CNS = tested on: SF-268 CNS
U251 CNS = tested on: U251 CNS
SK-MEL-28 melanoma = tested on: SK-MEL-28 melanoma
COLO 205 colon = tested on: COLO 205 colon
SK-MEL-2 melanoma = tested on: SK-MEL-2 melanoma
UO-31 renal = tested on: UO-31 renal
NCI/ADR-RES ovarian = tested on: NCI/ADR-RES ovarian
K-562 leukemia = tested on: K-562 leukemia
786-0 renal = tested on: 786-0 renal
A549 NSCLC = tested on: A549 NSCLC
MCF7 breast = tested on: MCF7 breast
HOP-62 NSCLC = tested on: HOP-62 NSCLC
UACC-62 melanoma = tested on: UACC-62 melanoma
T-47D breast = tested on: T-47D breast
UACC-257 melanoma = tested on: UACC-257 melanoma
SW-620 colon = tested on: SW-620 colon
KM12 colon = tested on: KM12 colon
SK-MEL-5 melanoma = tested on: SK-MEL-5 melanoma
HOP-92 NSCLC = tested on: HOP-92 NSCLC
DU-145 prostate = tested on: DU-145 prostate
HL-60(TB) leukemia = tested on: HL-60(TB) leukemia
HT29 colon = tested on: HT29 colon
ACHN renal = tested on: ACHN renal
OVCAR-4 ovarian = tested on: OVCAR-4 ovarian
SNB-75 CNS = tested on: SNB-75 CNS
PC-3 prostate = tested on: PC-3 prostate
SF-295 CNS = tested on: SF-295 CNS
HCT-116 colon = tested on: HCT-116 colon
IGROV1 ovarian = tested on: IGROV1 ovarian
MALME-3M melanoma = tested on: MALME-3M melanoma
NCI-H226 lung = tested on: NCI-H226 lung
CAKI-1 renal = tested on: CAKI-1 renal
CCRF-CEM leukemia = tested on: CCRF-CEM leukemia
SR leukemia = tested on: SR leukemia
LOX IMVI melanoma = tested on: LOX IMVI melanoma
HCT-15 colon = tested on: HCT-15 colon
OVCAR-3 ovarian = tested on: OVCAR-3 ovarian
A498 renal = tested on: A498 renal
SF-539 CNS = tested on: SF-539 CNS
SK-OV-3 ovarian = tested on: SK-OV-3 ovarian
SN12C renal = tested on: SN12C renal
RPMI-8226 leukemia = tested on: RPMI-8226 leukemia
OVCAR-8 ovarian = tested on: OVCAR-8 ovarian
HS 578T breast = tested on: HS 578T breast
MDA-MB-231 breast = tested on: MDA-MB-231 breast

With `O=C(Cc1ccc(/C=C/C(=O)c2ncc[nH]2)cc1)Nc1ccc(C(F)(F)F)cc1` the GI50 (OVCAR-5 ovarian) was 4.89 µM, the TGI (OVCAR-5 ovarian) was 10.2 µM and the GI50 (NCI-H23 lung) was 3.42 µM. The TGI (NCI-H23 lung) was 9.26 µM, the GI50 (NCI-H522 lung) was 4.87 µM and the TGI (NCI-H522 lung) was 12.4 µM. For the same molecule, the GI50 (MOLT-4 leukemia) was 2.29 µM, the TGI (MOLT-4 leukemia) was 28.5 µM and the GI50 (SNB-19 CNS) was 2.79 µM. The TGI (SNB-19 CNS) was 7.75 µM, the GI50 (M14 melanoma) was 2.58 µM and the TGI (M14 melanoma) was 9.25 µM. It also gave a GI50 (RXF 393 renal) of 3.75 µM, a TGI (RXF 393 renal) of 8.83 µM and a GI50 (MDA-MB-435) of 2.87 µM. For the same molecule, the TGI (MDA-MB-435) was 11.6 µM, the GI50 (EKVX NSCLC) was 5.57 µM and the TGI (EKVX NSCLC) was 14.6 µM. It also gave a GI50 (BT-549 breast) of 2.11 µM, a TGI (BT-549 breast) of 8.28 µM and a GI50 (NCI-H460 lung) of 3.6 µM. For the same molecule, the TGI (NCI-H460 lung) was 10.7 µM, the GI50 (TK-10 renal) was 6.63 µM and the TGI (TK-10 renal) was 13.8 µM. The GI50 (HCC-2998 colon) was 3.97 µM, the TGI (HCC-2998 colon) was 8.61 µM and the GI50 (SF-268 CNS) was 3.05 µM. For the same molecule, the TGI (SF-268 CNS) was 9.53 µM, the GI50 (U251 CNS) was 1.22 µM and the TGI (U251 CNS) was 4.11 µM. It also gave a GI50 (SK-MEL-28 melanoma) of 5.32 µM, a TGI (SK-MEL-28 melanoma) of 11.1 µM and a GI50 (COLO 205 colon) of 5.38 µM. For the same molecule, the TGI (COLO 205 colon) was 11.8 µM, the GI50 (SK-MEL-2 melanoma) was 7.09 µM and the TGI (SK-MEL-2 melanoma) was 16.7 µM. For the same molecule, the GI50 (UO-31 renal) was 2.43 µM, the TGI (UO-31 renal) was 6.74 µM and the GI50 (NCI/ADR-RES ovarian) was 8.96 µM. For the same molecule, the TGI (NCI/ADR-RES ovarian) was over 33.3 µM, the GI50 (K-562 leukemia) was 1.24 µM and the TGI (K-562 leukemia) was over 33.3 µM. The GI50 (786-0 renal) was 1.4 µM, the TGI (786-0 renal) was 6.07 µM and the GI50 (A549 NSCLC) was 6.37 µM. For the same molecule, the TGI (A549 NSCLC) was 27.1 µM, the GI50 (MCF7 breast) was 0.851 µM and the TGI (MCF7 breast) was 4.31 µM. The GI50 (HOP-62 NSCLC) was 4.8 µM, the TGI (HOP-62 NSCLC) was 12 µM and the GI50 (UACC-62 melanoma) was 4.47 µM. The TGI (UACC-62 melanoma) was 9.44 µM, the GI50 (T-47D breast) was 3.97 µM and the TGI (T-47D breast) was 12.3 µM. It also gave a GI50 (UACC-257 melanoma) of 7.2 µM, a TGI (UACC-257 melanoma) of 16.1 µM and a GI50 (SW-620 colon) of 1.35 µM. The TGI (SW-620 colon) was 5.17 µM, the GI50 (KM12 colon) was 1.11 µM and the TGI (KM12 colon) was 4.27 µM. It also gave a GI50 (SK-MEL-5 melanoma) of 5.55 µM, a TGI (SK-MEL-5 melanoma) of 10.2 µM and a GI50 (HOP-92 NSCLC) of 4.89 µM. It also gave a TGI (HOP-92 NSCLC) of 11.1 µM, a GI50 (DU-145 prostate) of 2.13 µM and a TGI (DU-145 prostate) of 6.3 µM. For the same molecule, the GI50 (HL-60(TB) leukemia) was 2.03 µM, the TGI (HL-60(TB) leukemia) was 20 µM and the GI50 (HT29 colon) was 1.09 µM. The TGI (HT29 colon) was 4.47 µM, the GI50 (ACHN renal) was 6.33 µM and the TGI (ACHN renal) was 17.8 µM. The GI50 (OVCAR-4 ovarian) was 5.12 µM, the TGI (OVCAR-4 ovarian) was 22.1 µM and the GI50 (SNB-75 CNS) was 3.97 µM. For the same molecule, the TGI (SNB-75 CNS) was 9.12 µM, the GI50 (PC-3 prostate) was 2.81 µM and the TGI (PC-3 prostate) was 12.4 µM. The GI50 (SF-295 CNS) was 4.08 µM, the TGI (SF-295 CNS) was 9.3 µM and the GI50 (HCT-116 colon) was 0.694 µM. The TGI (HCT-116 colon) was 1.74 µM, the GI50 (IGROV1 ovarian) was 3.84 µM and the TGI (IGROV1 ovarian) was 15.9 µM. It also gave a GI50 (MALME-3M melanoma) of 5.18 µM, a TGI (MALME-3M melanoma) of 12.9 µM and a GI50 (NCI-H226 lung) of 6.11 µM. The TGI (NCI-H226 lung) was 13.1 µM, the GI50 (CAKI-1 renal) was 4.43 µM and the TGI (CAKI-1 renal) was 9.47 µM. The GI50 (CCRF-CEM leukemia) was 1.55 µM, the TGI (CCRF-CEM leukemia) was over 33.3 µM and the GI50 (SR leukemia) was 0.843 µM. It also gave a TGI (SR leukemia) of over 33.3 µM, a GI50 (LOX IMVI melanoma) of 0.469 µM and a TGI (LOX IMVI melanoma) of 1.02 µM. For the same molecule, the GI50 (HCT-15 colon) was 1.04 µM, the TGI (HCT-15 colon) was 4.79 µM and the GI50 (OVCAR-3 ovarian) was 1.09 µM. It also gave a TGI (OVCAR-3 ovarian) of 3.35 µM, a GI50 (A498 renal) of 4.73 µM and a TGI (A498 renal) of 10 µM. For the same molecule, the GI50 (SF-539 CNS) was 4.52 µM, the TGI (SF-539 CNS) was 9.25 µM and the GI50 (SK-OV-3 ovarian) was 7.66 µM. It also gave a TGI (SK-OV-3 ovarian) of 26.3 µM, a GI50 (SN12C renal) of 1.87 µM and a TGI (SN12C renal) of 8.02 µM. It also gave a GI50 (RPMI-8226 leukemia) of 0.78 µM, a TGI (RPMI-8226 leukemia) of 1.83 µM and a GI50 (OVCAR-8 ovarian) of 7.99 µM. The TGI (OVCAR-8 ovarian) was over 33.3 µM, the GI50 (HS 578T breast) was 5.88 µM and the TGI (HS 578T breast) was over 33.3 µM. For the same molecule, the GI50 (MDA-MB-231 breast) was 2.79 µM and the TGI (MDA-MB-231 breast) was 8.55 µM.
